{"source": "patent US5659049A", "about": "“Antioxidant, antiphospholipase derivatives of ricinoleic acid” (Virginia Commonwealth University, priority 1995, dated 1997)", "system": "N. naja cobra venom phospholipase", "test": "In vitro inhibition of N. naja cobra venom phospholipase (FIG. 8)", "type": "biochemical"}
{"smiles": "CCCCCCC(C/C=C\\CCCCCCCC(=O)O)OC(=O)CCCCCCCCC(=O)O", "note": "(stereo not shown) [RISE-1, Ricinoleic Acid Sebacyl Ester]", "values": [{"measurement": "Inhibition of N. naja cobra venom phospholipase", "result": "dose related, selective in vitro inhibition"}]}
